According to patent US20250332112A1, “IONIZABLE CATIONIC LIPIDS FOR LIPID NANOPARTICLES” (GENEVANT SCIENCES GMBH, priority 2022, published 2025):

Tests used:
[1] = Particle characteristics of LNPs containing luciferase mRNA and novel ionizable lipids; type: physicochemical
In short: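 LNPs made from PEG-lipid, ionizable lipid, cholesterol and phospholipid in ethanol, T-mixed with luciferase mRNA in 100 mM acetate pH 5. Products were dialysed, concentrated, and dialysed into 5 mM Tris, 10% sucrose, pH 8, then 0.2 μm filtered. mRNA was measured by RiboGreen, and size and polydispersity by dynamic light scattering on a Zetasizer.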

[2] = test system: human OTC expression in the liver; assay: Dose response of human OTC mRNA LNP, OTC expression in liver (ELISA); type: in vivo; details: 24 h, male C57BL/6 mice (n = 4)
Experimental: LNP formulations encapsulating ornithine transcarbamylase mRNA were injected intravenously at the specified dose levels to male C57BL/6 mice (6-8 weeks old).
Liver homogenates were prepared with PBS, Halt protease inhibitor cocktail and FastPrep homogenization, standardized to 2 mg/mL protein with a BCA Protein Assay, and then analyzed by ELISA. Briefly, samples were diluted with PBS and plated on Nunc Maxisorp plates. A standard curve using human […] protein was prepared from the naïve animal controls (vehicle). After 2 h incubation the plates were washed, and the primary antibody was added. After 1 h incubation, the secondary antibody was added and incubated for another hour. After washing, TMB Substrate was added for color development and the reaction was stopped with 2 N sulfuric acid. The plate was read at 450/570 OD.
At 24 h post-dose, the novel lipid formulations reported dose-dependent increases in human OTC expression in the liver (Table 15).

[3] = Parent ionizable lipid remaining in liver at 6 h after luciferase mRNA LNP (LC-MS); type: in vivo; details: 6 h after IV 0.5 mg/kg Luciferase mRNA LNP
[4] = test system: EGFP expression in the liver; assay: Dose response of EGFP mRNA LNP, EGFP expression in liver; type: in vivo; details: 24 h, female BALB/c mice (n = 4)
Experimental: At 24 h post-dose, the novel lipid formulations reported dose-dependent increases in EGFP expression in the liver (Table 32).

[5] = Table 1, luciferase mRNA LNP 1.6:54.6:32.8:10.9
[6] = Table 2, luciferase mRNA LNP 1.6:54.6:32.8:10.9
[7] = Table 3, luciferase mRNA LNP 1.6:54.6:32.8:10.9
[8] = Table 4, luciferase mRNA LNP 1.6:54.6:32.8:10.9
[9] = Table 5, luciferase mRNA LNP 1.6:54.6:32.8:10.9
[10] = Table 6, luciferase mRNA LNP 1.6:54.6:32.8:10.9
[11] = Table 7, luciferase mRNA LNP 1.6:54.6:32.8:10.9

For CCCCC/C=C\CCCC(CCC/C=C\CCCCC)C(CCC/C=C\CCCCC)OC(=O)CCCCN(C)C (stereo not drawn) [Compound 13-B43, reference compound], the “Final Product % EE” value [1, 5] was 94%, the “Final Product PDI” value [1, 5] was 0.13 and the “Final Product Z-avg” value ([1]; Table 1, luciferase mRNA LNP 1.6:54.6:32.8:10.9 PEG2000-C-DMA:Ionizable lipid:Cholesterol:DSPC) was 70 nm. For the same molecule, the “Final Product % EE” value [1, 6] was 99%, the “Final Product PDI” value [1, 6] was “(0.03)” and the “Final Product Z-avg” value [1, 6] was 72 nm. The “Final Product % EE” value [1, 7] was 99%, the “Final Product PDI” value [1, 7] was 0.06 and the “Final Product Z-avg” value [1, 7] was 72 nm. The “Final Product % EE” value [1, 8] was 98%, the “Final Product PDI” value [1, 8] was 0.07 and the “Final Product Z-avg” value [1, 8] was 72 nm. The “Final Product % EE” value [1, 9] was 98%, the “Final Product PDI” value [1, 9] was 0.06 and the “Final Product Z-avg” value [1, 9] was 69 nm. The “Final Product % EE” value [1, 10] was 99%, the “Final Product PDI” value [1, 10] was 0.07 and the “Final Product Z-avg” value [1, 10] was 77 nm. For the same molecule, the “Final Product % EE” value [1, 11] was 98%, the “Final Product PDI” value [1, 11] was 0.06 and the “Final Product Z-avg” value [1, 11] was 74 nm. The “Human OTC expression” value ([2]; 0.3 mg/kg IV) was 908 ng hOTC/mg protein in liver, the “Human OTC expression” value ([2]; 1 mg/kg IV) was 6651 ng hOTC/mg protein in liver and the “Human OTC expression” value ([2]; 3 mg/kg IV) was 12413 ng hOTC/mg protein in liver. The “Parent ionizable lipid remaining in liver, Average” value (“Parent ionizable lipid remaining” for short) ([3]; Table 16, female BALB/c mice (n = 4)) was 22.64 nmol/g liver, the “Parent ionizable lipid remaining” value ([3]; Table 17, female mice (n = 4)) was 43.87 nmol/g liver and the “Parent ionizable lipid remaining” value ([3]; Table 18, female BALB/c mice (n = 4)) was 63.32 nmol/g liver. The EGFP expression ([4]; 0.3 mg/kg IV) was 3.65e+07 pg EGFP/g liver, the EGFP expression ([4]; 1 mg/kg IV) was 1.88e+08 pg EGFP/g liver and the EGFP expression ([4]; 3 mg/kg IV) was 4.4e+08 pg EGFP/g liver.
